# What was measured:
# MCF-7 cells = experiment: Flow cytometry of DPP-3 in MCF-7 cells; assay type: cell-based, human; conditions: 1 μM inhibitor, 5 μM DPP-3, 5 min
# Description: Cells were plated on a 10 cm dish with 10 mL of DMEM/High Glucose (10% FBS, 1% P/S, L-Glutamine, Sodium pyruvate) 36-48 hours prior to the day of experiment and maintained at 37° C., 5% CO2 so as to obtain 80-90% confluency. Cells were washed with DPBS and trypsinized with 1 mL 0.05% Trypsin. 5 mL of DMEM/High Glucose (10% FBS, L-Glutamine, Sodium pyruvate) was added and cells were spun down at 1200 rpm for 3 min. Media was discarded and cells were resuspended in 5 mL of Live Cell Imaging Solution and again spun down at 1200 rpm for 3 min. The cells pellets obtained were resuspended in 3-5 mL of Live Cell Imaging Solution and divided into 500 μL aliquots. The aliquots were treated with either 0.2% DMSO carrier or 1 μM of PalmB/ML348 or 1 μM/5 μM of ML349 inhibitor. After 30 min of incubation at room temperature, 1 μL of 2.5 mM DPP-3 in DMSO was added to each aliquot for a final concentration of 5 μM, and the solutions were mixed. After 5 min incubation at room temperature, fluorescence signal in FITC channel was measured for 10000 cells (5000 for HeLa experiments) on a LSR-Fortessa 4-15 HTS (BD digital instrument, 488 nm laser with 530/30 nm filter for FITC; BD, Franklin Lakes, N.J., United States of America). For analyzing DPP2 in HEK293T cells, the aliquots were treated with either 0.2% DMSO carrier or 2 μM of PalmB, 5 or 20 μM of ML348/ML349 and then analyzed by the protocol as mentioned above. Data was analyzed by FlowJo software version 10.0.8. For comparison of A431 starved versus non-starved, parallel 10 cm dishes of A431 cells were plated in 10 mL of DMEM (high glucose, 10% FBS, 1% P/S), and grown for 36 h. The growth media was removed, and replaced by 10 mL of either DMEM (High glucose) with 10% FBS to maintain “growth” conditions, or DMEM (High glucose) without FBS respectively for “starvation” conditions, and incubated for 14 h. After trypsinization, both plates were treated with 5 mL of DMEM (high glucose) for spinning the cells down, and further processing and analysis were performed as described above by flow cytometry.
# human colon organoids = experiment: Epifluorescent imaging of RDP-2 with human colon organoids; assay type: cell-based; conditions: 40 μM inhibitor 30 min, 5 μM RDP-2
# Description: At least 24 h before imaging experiments, cultured colon organoids were split using a 25G needle and 1 mL syringe, pelleted, and 50-100 organoids per well were re-plated in eight-well chambered slides (20 μL droplets/well; 250 μL organoid growth media; Cellvis, Mountain View, Calif., United States of America) for treatment and imaging. 30 min before the addition of RDP-2, the cell culture media was removed and cells were washed with 300 μL of serum-free FluoroBrite DMEM (Gibco, Gaithersburg, Md., United States of America; High Glucose, Glutamax, no FBS). […] After incubation for 10 min at 37° C. and 5% CO2, the cells were washed with 300 μL Live Cell Imaging Solution and 300 μL of Live Cell Imaging Solution containing DMSO or the appropriate inhibitor was added to the cells immediately before images were obtained on an inverted epi-fluorescence microscope (Olympus IX83; Olympus Corporation, Tokyo, Japan) attached with EMCCD camera (Photometrics EVOLVE™ Delta, Photometrics, Tucson, Ariz., United States of America) with 40× oil objective (N/A 1.3) for RDP-2 (excitation filter 1 430/24 nm, dichroic chroma 89007, emission filter 1 470/24 nm, exposure time 150 ms, EM gain 100, excitation filter 2 480/20 nm, dichroic chroma 49014, emission filter 2 575/40 nm, exposure time 75 ms, EM gain 75), brightfield (exposure time 50 ms, EM gain 30). […]
SMILES,effect of inhibitor on depalmitoylation signal measured by DPP-3 (MCF-7 cells),"inhibition / decrease of measured S-depalmitoylation, RDP-2 (human colon organoids)"
O=C(CN1CCN(C(=O)c2ccco2)CC1)Nc1cc(C(F)(F)F)ccc1Cl [ML348],knocks down the depalmitoylation signal,about 20%
"CCCCCCCCCC[C@@H]1C(=O)O[C@H]1CCc1ccc(OC)c(OC)c1 [PalmB, palmostatin B]",knocks down the depalmitoylation signal,about 50%

# Source: patent US10413583B2, “Synthetic substrates for enzymes that catalyze reactions of modified cysteines and related methods” (The University of Chicago, priority 2016, dated 2019)
